The structures appear in SMILES notation. Some results are limits rather than exact numbers.

Holding throughout (type): cell-based
In test [1] the test system is MRSA. In words: In vitro antimicrobial activity, agar dilution MIC. In short, it runs like this: (§1)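 MIC is read as the lowest drug concentration in Mueller Hinton II agar that prevents visible growth, judged against inoculum control plates without drug. Plates carry two-fold dilutions and are spotted with ~1.0×10^7 CFU/mL inocula, then incubated 18–24 hours at 32–35° C.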
Background: In agar dilution, organisms are placed on agar that contains the substance at set levels.

Test [2] deals with Enterococcus faecalis. In words: In vitro antimicrobial activity, agar dilution MIC. In short, it runs like this:
as §1

The subject of test [3] is Staphylococcus epidermidis. Put plainly: In vitro antimicrobial activity, agar dilution MIC. An outline of the steps: as §1
Test [4] has as its system Acinetobacter baumannii. In words: In vitro antimicrobial activity, agar dilution MIC. Particulars: test organism 26, Acinetobacter baumannii. In short, it runs like this:
as §1

Test [5] has as its system Morganella morganii. Put plainly: In vitro antimicrobial activity, agar dilution MIC. An outline of the steps:
as §1

The subject of test [6] is Serratia marcescens. In words: In vitro antimicrobial activity, agar dilution MIC. An outline of the steps:
as §1

Test [7] deals with MSSA. In words: In vitro antimicrobial activity, agar dilution MIC. Particulars: test organism 6, MSSA. An outline of the steps:
as §1

Test [8] concerns microorganisms. Put plainly: In vitro antimicrobial activity test, whole panel of test organisms. Particulars: across the test organisms of TABLE 3. As for the experimental part:
The activity of the compounds of the present invention was evaluated using an in vitro assay. Microorganisms were prepared from growth on agar media, in broth culture, or from thawed cryopreserved cultures. Fungal cultures were filtered to remove mycelial elements.
Using Mueller Hinton II Broth, 0.9% saline or other appropriate media, a suspension of each culture was prepared and adjusted to a turbidity equivalent to that of a 0.5 McFarland Standard. (Cultures adjusted to the 0.5 McFarland Standard generally contain approximately 1.0×10^8 CFU/mL). The adjusted suspension for each culture was diluted 1:10 in the appropriate media so that the inoculum concentration approximates 1.0×10^7 CFU/mL.
The antimicrobial agent to be tested was weighed and diluted with a volume of sterile distilled water calculated to yield the necessary starting concentration. Serial 1:2 dilutions of the antimicrobial agent in sterile distilled water were prepared (approximately 10-12 test concentrations comprise a reasonable experimental range). A known amount of each antimicrobial dilution was combined with an aliquot of agar medium calculated to yield the desired final antimicrobial test concentration and dispensed onto plates.
The amount of antimicrobial agent to be weighed was determined using the following equation: […]
Antimicrobial stock solutions were prepared at concentrations 5-10 times the highest concentration to be tested (routinely 1024 μg/mL). […] The stock solution was diluted to appropriate concentration using sterile water to form a working solution. The working solution was diluted two-fold, in sterile water, until the desired concentration is obtained.
Mueller Hinton II agar was prepared as described by the manufacturer. Mueller Hinton II agar may be supplemented with 5% defibrinated sheep blood for testing streptococci. Agar was added to the serially diluted antimicrobial solution in each container. The solutions were mixed thoroughly and poured into petri dishes (about 25 mL/plate). The pH of the agar at 25° C. should be between 7.2 and 7.4. […]

[9] abbreviates: test organism 15, Enterococcus faecalis.
The mark [10] stands for this setting: test organism 16, Enterococcus faecalis.
[11] abbreviates: test organism 17, Enterococcus faecalis.
[12] abbreviates: test organism 18, Enterococcus faecalis.
[13] abbreviates: test organism 7, Staphylococcus epidermidis.
Setting [14] is: test organism 8, Staphylococcus epidermidis.
Setting [15] is: test organism 35, Morganella morganii.
The mark [16] stands for this setting: test organism 36, Morganella morganii.
Setting [17] is: test organism 39, Serratia marcescens.
Where [18] appears, read: test organism 40, Serratia marcescens.

Take `Nc1c(F)c(N2CC3CCCNC3C2)c(F)c2c1c(=O)c(C(=O)O)cn2C1CC1` (racemic) [Compound 3 (racemic)]: the “Minimal Inhibitory Concentration (MIC)” value in test [1] (test organism 3, MRSA) is given as >2; in test [1] (test organism 4, MRSA), 2; in test [1] (test organism 5, MRSA), >2; in test [2] (setting [9]), 0.125; in test [2] (setting [10]) it was 1; in test [2] (setting [11]), >4. Besides, the “Minimal Inhibitory Concentration (MIC)” value in test [2] (setting [12]) is given as >2; in test [3] (setting [13]), 0.06; in test [3] (setting [14]), >2; in test [4] it was 0.5; in test [5] (setting [15]) it was 0.5; in test [5] (setting [16]) it was 1. The “Minimal Inhibitory Concentration (MIC)” value in test [6] (setting [17]) was 0.5; in test [6] (setting [18]) it was 1; in test [7], >4.
On to `CN1CCCC2CN(c3c(F)cc4c(=O)c(C(=O)O)cn(C5CC5)c4c3F)CC21` (centres unmarked) [Compound 1], for which the “Minimal Inhibitory Concentration (MIC)” value in test [1] (test organism 3, MRSA) is >2; in test [1] (test organism 4, MRSA) it was 4; in test [1] (test organism 5, MRSA), >2; in test [2] (setting [9]), 0.5; in test [2] (setting [10]), >2; in test [2] (setting [11]), >4. The “Minimal Inhibitory Concentration (MIC)” value is listed as >2 in test [2] (setting [12]); 0.25 in test [3] (setting [13]); >2 in test [3] (setting [14]); 0.5 in test [4]; 0.5 in test [5] (setting [15]); 2 in test [5] (setting [16]). Besides, the “Minimal Inhibitory Concentration (MIC)” value is on record as 1 in test [6] (setting [17]), 1 in test [6] (setting [18]) and >4 in test [7]. Besides, the “antimicrobial activity compared to moxifloxacin (in words)” value in test [8] is “somewhat better antimicrobial activity against certain microorganisms compared to moxifloxacin, and performed comparably when taken as a whole”.
Take `CN1CCCC2CN(c3cc4c(cc3F)c(=O)c(C(=O)O)cn4C3CC3)CC21` (centres unmarked) [Compound 2]: the “Minimal Inhibitory Concentration (MIC)” value in test [1] (test organism 3, MRSA) is listed as >2; in test [1] (test organism 4, MRSA), >4; in test [1] (test organism 5, MRSA), >2; in test [2] (setting [9]), 1; in test [2] (setting [10]), “≦0.25”; in test [2] (setting [11]), >4. Moreover, the “Minimal Inhibitory Concentration (MIC)” value is given as >2 in test [2] (setting [12]); 2 in test [3] (setting [13]); >2 in test [3] (setting [14]); “≦0.25” in test [4]; 1 in test [5] (setting [15]); 2 in test [5] (setting [16]). For the same molecule, the “Minimal Inhibitory Concentration (MIC)” value in test [6] (setting [17]) was 4; in test [6] (setting [18]) it was 4; in test [7] it was >4. The “antimicrobial activity compared to moxifloxacin (in words)” value in test [8] was “generally did not perform as well as moxifloxacin”.
For `Nc1c(F)c(N2CC3CCCNC3C2)c(F)c2c1c(=O)c(C(=O)O)cn2C1CC1` [Compound 3 (S,S)], the “Minimal Inhibitory Concentration (MIC)” value was 1 in test [1] (test organism 3, MRSA); 2 in test [1] (test organism 4, MRSA); >2 in test [1] (test organism 5, MRSA); 0.125 in test [2] (setting [9]); 0.5 in test [2] (setting [10]); >4 in test [2] (setting [11]). Besides, the “Minimal Inhibitory Concentration (MIC)” value in test [2] (setting [12]) was >2; in test [3] (setting [13]) it was 0.5; in test [3] (setting [14]), 0.5; in test [4], “≦0.25”; in test [5] (setting [15]) it was 0.125; in test [5] (setting [16]) it was 1. Further, the “Minimal Inhibitory Concentration (MIC)” value in test [6] (setting [17]) is 0.5; in test [6] (setting [18]), 1; in test [7], 4.
